Results reported in patent publication US12037300B2, “Use of a cation source to prevent decomposition of (thio)phosphoric acid triamide urease inhibitors when a phosphorus-containing fertilizer is present” (BASF SE, priority 2016, dated 2024).

What was measured:
[1] = tested on: urease, naturally present in the soil; assay: Dräger test: ammonia emission from soil treated with fertilizer granules; format: biochemical; details: for prevention of the degradation of U1: 0.25 g salt, 18 days storage; for prevention of the degradation of U1 / influence of DAP on the performance of the tested urease inhibitors in urea/DAP blends on addition of the salt: 10 g DAP; for influence of DAP on the performance of the tested urease inhibitors in urea/DAP blends on addition of the salt: 0.5 g salt, 3 weeks storage
Description: Alternatively, the amount of the (thio)phosphoric acid triamide (2) in a sample after a certain time period may be determined indirectly by determining the urease inhibiting efficacy that is observable. The urease-inhibiting efficacy may be determined by the Dräger test as outlined in the Examples. The Dräger test is based on the determination of the concentration of ammonia gas that is set free from a soil sample being treated with a urea-containing fertilizer once a day. In general, a certain amount of ammonia is typically produced within a certain time period in a soil sample being treated with a urea-containing fertilizer due to the degradation of the urea-containing fertilizer caused by the urease, which is present in the soil. If the urea-containing fertilizer is provided in combination with a urease inhibitor such as a (thio)phosphoric acid triamide (2), the degradation of the urea-containing fertilizer is slowed down, so that a lower amount of ammonia will be produced in the same time period. On the other hand, if the (thio)phosphoric acid triamide (2) has decomposed to a certain extent, e.g. upon storage, the production of ammonia will be reduced only to a lower extent. The ammonia concentration measured after a certain time period may thus be correlated with the amount of the (thio)phosphoric acid triamide (2) in a sample. In order to exclude a destabilizing effect caused by the urea-containing fertilizer (3a), the (thio)phosphoric acid triamide (2) may be provided in combination with a stabilizing agent, which prevents decomposition caused by the fertilizer (3a). By comparing the decomposition of the (thio)phosphoric acid triamide (2) in the presence of the fertilizer (3a) only, with the decomposition of the (thio)phosphoric acid triamide (2) in the presence of the fertilizer mixture (3) comprising the fertilizer (3a) and the P-containing fertilizer (3b), the decomposition caused by the P-containing fertilizer (3b) can be determined.
For the Dräger test, 150 g Limburgerhof (Germany) soil is added to a 500 mL wide-mouth jar (9 cm diameter). Fertilizer granules are added and distributed evenly over the soil. The amount of fertilizer added corresponds to 115 mg of urea-N. The soil and fertilizer are then wetted with a fine spray of water (1 mL). Afterwards, the jar is closed with a lid. In the middle of the lid a hole is made in which an ammonia gas test tube (Dräger, Ammoniak 20/a-D 8101301, Diffusionsröhrchen) is placed. The urease, naturally present in the soil, hydrolyses urea into carbon dioxide and ammonia. The concentration of ammonia gas is read out once a day from the scale on the Dräger diffusion tube. All tests are performed in duplicate.
For the preparation of dry blend fertilizer mixtures, 10 g of urea treated with a urease inhibitor and 10 g of the other fertilizer are added to a small jar. After closing the jar, the fertilizers are mixed by vigorously shaking the jar. The closed jar is then stored at room temperature in a dark place. At the end of the storage time, urea granules are removed and tested using the Dräger test.

[2] = format: physicochemical; details: for decomposition of the urease inhibitors: after one day in the absence of TSP granules
Description: The amount of the (thio)phosphoric acid triamide in a sample after a certain time period may be detected e.g. by HPLC using method DIN EN 16651. In order to exclude a destabilizing effect caused by the urea-containing fertilizer (3a), the (thio)phosphoric acid triamide (2) may be provided in combination with a stabilizing agent, which prevents decomposition caused by the fertilizer (3a). By comparing the decomposition of the (thio)phosphoric acid triamide (2) in the presence of the fertilizer (3a) only, with the decomposition of the (thio)phosphoric acid triamide (2) in the presence of the fertilizer mixture (3) comprising the fertilizer (3a) and the P-containing fertilizer (3b), the decomposition caused by the P-containing fertilizer (3b) can be determined.
Active ingredient content on urea was analyzed by HPLC (high-pressure liquid chromatography) using method DIN EN 16651. In case of bulk blends, the urea granules were separated from the other fertilizers before dissolving in water for HPLC analysis.
Urea granules treated with 0.04 wt.-% U1 active ingredient were mixed with TSP (Triple Super Phosphate) fertilizer granules. After mixing, the samples were stored in closed containers at room temperature. After 1 day of storage, the urea granules were separated from the TSP granules and the active ingredient (a.i.) concentration on the urea was analyzed by HPLC.

Q: Which “prevention of the degradation of U1” value [1] does the source give for `O.O.O.O.O.O.O.O=S(=O)([O-])[O-].[Mg+2]` [Magnesium sulfate heptahydrate] here?
A: does prevent the degradation of U1 as effectively as anhydrous magnesium sulfate

Q: For `CCCCNP(N)(N)=S` [NBPT, N-n-butylthiophosphoric acid triamide], which “decomposition of the urease inhibitors” value [2] is on record?
A: no decomposition

Q: With `CCCNP(N)(N)=S` [NPPT, N-n-propylthiophosphoric acid triamide] as the compound, how does the “decomposition of the urease inhibitors” value [2] read?
A: no decomposition

Q: With `[Ca+2].[Cl-].[Cl-]` [calcium chloride, Calcium chloride anhydrous] as the compound, how does the “prevention of the degradation of U1” value [1] read?
A: effective in preventing the degradation of U1

Q: And the “influence of DAP on the performance of the tested urease inhibitors in urea/DAP blends on addition of the salt” value [1]?
A: eliminates the influence of DAP

Q: What about the “prevention of the degradation of U1 active ingredient on wetblend fertilizers” value ([1]; 16-8-22 fertilizer treated with CaCl2 solution, 1 month storage) of the same compound?
A: able to prevent the degradation of U1 active ingredient

Q: With `O.O.O=S(=O)([O-])[O-].[Ca+2]` [calcium sulfate, Calcium sulfate dihydrate] as the compound, how does the “prevention of the degradation of U1” value [1] read?
A: effective in preventing the degradation of U1

Q: What does the source list for `O=S(=O)([O-])[O-].[Mg+2]` [magnesium sulfate, Magnesium sulfate anhydrous]?
A: prevention of the degradation of U1 in fertilizer mixtures containing DAP ([1]; 0.25 g MgSO4, 10 g DAP, 1 month storage): does prevent the degradation of U1; influence of DAP on the performance of the tested urease inhibitors in urea/DAP blends on addition of the salt [1]: eliminates the influence of DAP; time for which degradation of U1 in mixtures containing DAP is prevented ([1]; 1.25 wt.-% magnesium sulfate): up to 5 months; time for which degradation of U1 in mixtures containing phosphate fertilizers is prevented ([1]; 2.5 wt.-% magnesium sulfate): up to 6 months; inhibition of the urease activity by the salt itself ([1]; 10 g urea, 0.25 g MgSO4, 1 month storage): does not inhibit the urease activity; inhibition of the urease enzyme by the salt on its own ([1]; Example 5, 18 days storage): does not inhibit the urease enzyme; amount effective to avoid U1 degradation ([1]; after 5 days storage of the NP mixture (urea/DAP)): ≤ 0.25 wt.-%

Q: For Urea, which “Remaining a.i. (%)” value ([2]; 24 h) is on record?
A: 100%
